Laboratory results taken from patent US11793779B2, “Hica for use in prophylaxis and/or treatment of a disease or condition involving degradation of cartilage and/or disruption of cartilage homeostasis and/or integrity” (Salarusta Oy, priority 2020, dated 2023).

Columns and labels:
[1] = molecular target: T1, recombinant human ADAMTS-5 (Homo sapiens, UniProt Q9UNA0); assay: ADAMTS-5 mediated break down of aggrecan (SDS-PAGE, silver stain); format: biochemical; conditions: 10% racemic HICA, pH 7.4, incubation 2 d, FIG. 1 line 5
T1 construct: purchased Chemicon International Inc. CC1034
T1 sequence (Q9UNA0 262-930): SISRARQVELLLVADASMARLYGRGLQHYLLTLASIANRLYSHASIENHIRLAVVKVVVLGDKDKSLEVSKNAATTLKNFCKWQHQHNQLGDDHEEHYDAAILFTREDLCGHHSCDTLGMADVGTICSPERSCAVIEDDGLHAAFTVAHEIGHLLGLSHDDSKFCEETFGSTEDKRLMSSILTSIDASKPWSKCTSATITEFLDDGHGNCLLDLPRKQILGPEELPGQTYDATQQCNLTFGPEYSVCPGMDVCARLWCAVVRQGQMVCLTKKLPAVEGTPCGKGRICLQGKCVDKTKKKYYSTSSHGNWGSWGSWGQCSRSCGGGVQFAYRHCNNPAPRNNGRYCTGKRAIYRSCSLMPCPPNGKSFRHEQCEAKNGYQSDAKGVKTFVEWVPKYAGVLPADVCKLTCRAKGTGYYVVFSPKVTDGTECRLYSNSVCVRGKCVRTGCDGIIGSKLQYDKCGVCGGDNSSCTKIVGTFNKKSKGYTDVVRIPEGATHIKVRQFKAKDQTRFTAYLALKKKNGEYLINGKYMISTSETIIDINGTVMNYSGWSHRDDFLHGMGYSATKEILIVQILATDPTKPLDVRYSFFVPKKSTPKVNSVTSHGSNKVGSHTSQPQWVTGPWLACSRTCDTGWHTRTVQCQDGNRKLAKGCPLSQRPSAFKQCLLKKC
Experimental: As positive inhibitor controls Ilomastat (Ilo, CC1010, Millipore) and chlorhexidine (CHX, Corsodyl®, [2 mg/ml] (GlaxoSmithKline, Brøndby, Denmark) were used and 50 mM Tris-HCl-buffer (TNC): pH 7.5; 0.2 M NaCl; 1.0 mM CaCl2) was used as neutral assay buffer.
MMP-13 was preincubated 1 hour at 37° C. with p-aminophenylmercuric acetate (APMA, A9563, Sigma-Aldrich) to optimally activate (pro)MMP-13. As substrate, Aggrecan was added and then ADAMTS-5 or activated MMP-13 as catalytic/proteolytic enzyme and TNC, as neutral control, and 10% HICA, CHX or Ilo as protease/MMP-inhibitors let incubated together from 1 hour (h) to 2 days (d). The enzyme reactions terminated by boiling with modified Laemmli buffer. The samples were analysed by 8% SDS-PAGE and after electrophoresis the defragmentation of Aggrecan was visualised using Silver Stain Pierce®.
Sample with concentrations in lines: • 1. 0.25 μl molecular weight standards. Bio-Rad • 2. 4.2 μl Aggrecan (0.5 μg/μl) • 3. 4 μl ADAMTS-5 (0.1 μg/μl) • 4. 4.2 μl Aggrecan+4 μl ADAMTS-5+6 μl TNC-buffer. inc: 2d • 5. 4.2 μl Aggrecan+4 μl ADAMTS-5+6 μl 10% HICA. inc: 2d • 6. 4.2 μl Aggrecan+4 μl ADAMTS-5+6 μl CHX (2 mg/ml). inc: 2d • 7. 1 μl MMP-13 (0.2 μg/μl)+3 μl 2 mM APMA+6 μl TNC • 8. 4.2 μl Aggrecan+1 μl MMP-13 (0.2 μg/μl)+3 μl 2 mM APMA+6 μl TNC. inc: 1h • 9. 4.2 μl Aggrecan+1 μl MMP-13 (0.2 μg/μl)+3 μl 2 mM APMA+6 μl TNC. inc: 2d • 10. […]

MMP-13 = MMP-13 (Homo sapiens, UniProt P45452); assay: MMP-13 catalytic activity assay (modified pro-urokinase UKcol, chromogenic substrate S-2444, A405); format: biochemical; conditions: HICA 25 μg/ml, FIG. 2
Experimental: This example was carried out to test the inhibition of the catalytic activity of MMP-13. MMP-13 activity was measured as described previously (Hanemaaijer, Visser et al. 1998). In brief, MMP-13 was captured from biological fluids using MMP-13-specific monoclonal antibody-coated 96-well plates. The wells were washed three times with PBS-T (phosphate buffered saline solution containing 0.05% [v/v] Tween-20) and incubated with […] assay buffer (50 mM Tris-HCl, pH 7.6. 150 mM NaCl, 5 mM CaCl2, 1 μM ZnCl2 and 0.01% [v/v] Brij-35), to which 15 μl (50 μg/ml) modified pro-urokinase (UKcol) and 10 pl (6 mM stock) chromogenic substrate S-2444 was added. Color development was recorded by measurement of A405 using a Titertek Multiskan 8-channel photometer (Verheijen, Nieuwenbroek et al. 1997). For measurement of total activity (already active plus latent MMP-13) in biological fluid, the immobilized MMP-13 was incubated with assay buffer containing 0.5 mM APMA for 2 hr, after which UKcol and S-2444 were added and activity was recorded. (Hanemaaijer, Sier et al. 1999)
The protocol for this experiment: MMP-13 was activated with […] of APMA (p-aminophenylmercuric acetate, obtained from Sigma-Aldrich #A9563), after which MMP-13 was diluted and mixed with indicated inhibitors. Solution was let to incubate 30 minutes at 37° C. […]

inhibition of break down of Aggrecan by ADAMTS-5 [1]: inhibited the break down of Aggrecan
decreased activity of MMP-13 (MMP-13; MMP-13 concentration 1.5 ng/ml): 72%
decreased activity of MMP-13 (MMP-13; MMP-13 concentration 24 ng/ml): 73%
SMILES: CC(C)CC(O)C(=O)O (racemic) [HICA, 2-hydroxy-4-methylpentanoic acid]
